Values quoted from earlier work, collected in patent publication US20250152701A1, “NKT CELL LIGAND-CONTAINING LIPOSOME COMPOSITION” (RIKEN, priority 2022, published 2025).

Conditions: Non Patent Literature 6

For `CCCCCCCCCCCCCCCCCCCCCCCCCC(=O)N[C@@H](CO[C@H]1OC(CO)[C@H](O)C(O)C1O)[C@H](O)[C@H](O)CCCCCCCCCCCCCC` (stereo partly shown) [KRN7000], the anti-tumor activity is given as “extremely strong anti-tumor activity”.
